Test results as given in PubChem BioAssay AID1963862 (Molecular Pharmacology Branch, DTP, NCI, 2024).

Tested on: KRAS patient-derived spheroids with HUVEC/MSC, viability
Assay: Anticancer human tumor 941728-121-R-J1-PDC patient-derived lung adenocarcinoma cell line growth inhibition [KRAS2]
Details: for IC50: curve of first compound; for viability, T/C: stronger effect = lower value
Outline: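 Combination screen of spheroid viability in tumor-cell co-cultures with endothelial (HUVEC) and mesenchymal stem cell stroma. Each agent was tested in half-log dilutions, topping at clinical Cmax or at 10 microM without a known Cmax.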

[1] = second compound 0.0316 µM, first compound 0.000316 µM
[2] = second compound 0.0316 µM, first compound 0.001 µM
[3] = second compound 0.0316 µM, first compound 0.00316 µM
[4] = second compound 0.0316 µM, first compound 0.01 µM
[5] = second compound 0.0316 µM, first compound 0.0316 µM
[6] = second compound 0.1 µM, first compound 0.000316 µM
[7] = second compound 0.1 µM, first compound 0.001 µM
[8] = second compound 0.1 µM, first compound 0.00316 µM
[9] = second compound 0.1 µM, first compound 0.01 µM
[10] = second compound 0.1 µM, first compound 0.0316 µM
[11] = second compound 0.316 µM, first compound 0.000316 µM
[12] = second compound 0.316 µM, first compound 0.001 µM
[13] = second compound 0.316 µM, first compound 0.00316 µM
[14] = second compound 0.316 µM, first compound 0.01 µM
[15] = second compound 0.316 µM, first compound 0.0316 µM
[16] = second compound 1 µM, first compound 0.000316 µM
[17] = second compound 1 µM, first compound 0.001 µM
[18] = second compound 1 µM, first compound 0.00316 µM
[19] = second compound 1 µM, first compound 0.01 µM
[20] = second compound 1 µM, first compound 0.0316 µM
[21] = second compound 3.16 µM, first compound 0.000316 µM
[22] = second compound 3.16 µM, first compound 0.001 µM
[23] = second compound 3.16 µM, first compound 0.00316 µM
[24] = second compound 3.16 µM, first compound 0.01 µM
[25] = second compound 3.16 µM, first compound 0.0316 µM
[26] = second compound 0.0316 µM, first compound 0.1 µM
[27] = second compound 0.1 µM, first compound 0.1 µM
[28] = second compound 0.316 µM, first compound 0.1 µM
[29] = second compound 1 µM, first compound 0.1 µM
[30] = second compound 3.16 µM, first compound 0.1 µM
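Further: spheroids exposed to agents for seven days before readout.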

Question: With CC(=O)Nc1cccc(-n2c(=O)n(C3CC3)c(=O)c3c(Nc4ccc(I)cc4F)n(C)c(=O)c(C)c32)c1 + C=CC(=O)N1CCN(c2nc(OCC3CCCN3C)nc3c2CCN(c2cccc4cccc(C)c24)C3)CC1CC#N as the compound, how does the IC50 (second compound 0.0316 µM) read?
Answer: < 0.1 nM

Question: What about the IC50 (second compound 0.1 µM) of the same compound?
Answer: < 0.1 nM

Question: And the IC50 (second compound 0.316 µM)?
Answer: < 0.1 nM

Question: And the IC50 (second compound 1 µM)?
Answer: < 0.1 nM

Question: What about the IC50 (second compound 3.16 µM) of the same compound?
Answer: < 0.1 nM

Question: What about the viability, T/C (second compound 0.0316 µM, first compound 0.0001 µM) of the same compound?
Answer: 31%

Question: And the viability, T/C [1]?
Answer: 26.4%

Question: And the viability, T/C [2]?
Answer: 25.9%

Question: What about the viability, T/C [3] of the same compound?
Answer: 25.4%

Question: And the viability, T/C [4]?
Answer: 24.2%

Question: And the viability, T/C [5]?
Answer: 25.1%

Question: And the viability, T/C (second compound 0.1 µM, first compound 0.0001 µM)?
Answer: 30.9%

Question: What about the viability, T/C [6] of the same compound?
Answer: 26.7%

Question: What about the viability, T/C [7] of the same compound?
Answer: 25.4%

Question: What about the viability, T/C [8] of the same compound?
Answer: 25.5%

Question: What about the viability, T/C [9] of the same compound?
Answer: 21.2%

Question: And the viability, T/C [10]?
Answer: 22%

Question: And the viability, T/C (second compound 0.316 µM, first compound 0.0001 µM)?
Answer: 29.2%

Question: What about the viability, T/C [11] of the same compound?
Answer: 27.2%

Question: And the viability, T/C [12]?
Answer: 23.4%

Question: And the viability, T/C [13]?
Answer: 24.1%

Question: And the viability, T/C [14]?
Answer: 22.1%

Question: What about the viability, T/C [15] of the same compound?
Answer: 22.9%

Question: And the viability, T/C (second compound 1 µM, first compound 0.0001 µM)?
Answer: 24%

Question: And the viability, T/C [16]?
Answer: 22.9%

Question: And the viability, T/C [17]?
Answer: 19%

Question: And the viability, T/C [18]?
Answer: 21.3%

Question: What about the viability, T/C [19] of the same compound?
Answer: 20%

Question: And the viability, T/C [20]?
Answer: 22.6%

Question: And the viability, T/C (second compound 3.16 µM, first compound 0.0001 µM)?
Answer: 0.84%

Question: What about the viability, T/C [21] of the same compound?
Answer: 0.35%

Question: And the viability, T/C [22]?
Answer: 1.24%

Question: What about the viability, T/C [23] of the same compound?
Answer: 0.89%

Question: What about the viability, T/C [24] of the same compound?
Answer: 1.14%

Question: What about the viability, T/C [25] of the same compound?
Answer: 0.53%

Question: What does the source list for CC(C)n1nc(-c2ccc3oc(N)nc3c2)c2c(N)ncnc21 + C=CC(=O)N1CCN(c2nc(OCC3CCCN3C)nc3c2CCN(c2cccc4cccc(C)c24)C3)CC1CC#N?
Answer: IC50 (second compound 0.0316 µM): < 0.316 nM; IC50 (second compound 0.1 µM): < 0.316 nM; IC50 (second compound 0.316 µM): < 0.316 nM; IC50 (second compound 1 µM): < 0.316 nM; IC50 (second compound 3.16 µM): < 0.316 nM; viability, T/C [1]: 35.4%; viability, T/C [2]: 32.9%; viability, T/C [3]: 24.6%; viability, T/C [4]: 17.3%; viability, T/C [5]: 11.5%; viability, T/C [26]: 11%; viability, T/C [6]: 35.3%; viability, T/C [7]: 28.8%; viability, T/C [8]: 28%; viability, T/C [9]: 15.9%; viability, T/C [10]: 11.1%; viability, T/C [27]: 12.5%; viability, T/C [11]: 38.2%; viability, T/C [12]: 33.9%; viability, T/C [13]: 26.6%; viability, T/C [14]: 16.8%; viability, T/C [15]: 13%; viability, T/C [28]: 9.77%; viability, T/C [16]: 33.1%; viability, T/C [17]: 29%; viability, T/C [18]: 20%; viability, T/C [19]: 11.9%; viability, T/C [20]: 9.99%; viability, T/C [29]: 10.3%; viability, T/C [21]: 2.26%; viability, T/C [22]: 0.92%; viability, T/C [23]: 0.32%; viability, T/C [24]: 0.8%; viability, T/C [25]: 0.12%; viability, T/C [30]: 0.23%

Question: With CC1(C)CCC(CN2CCN(c3ccc(C(=O)NS(=O)(=O)c4ccc(NCC5CCOCC5)c([N+](=O)[O-])c4)c(Oc4cnc5[nH]ccc5c4)c3)CC2)=C(c2ccc(Cl)cc2)C1 + C=CC(=O)N1CCN(c2nc(OCC3CCCN3C)nc3c2CCN(c2cccc4cccc(C)c24)C3)CC1CC#N as the compound, how does the IC50 (second compound 0.0316 µM) read?
Answer: < 31.6 nM

Question: What about the IC50 (second compound 0.1 µM) of the same compound?
Answer: < 31.6 nM

Question: What about the IC50 (second compound 0.316 µM) of the same compound?
Answer: < 31.6 nM

Question: What about the IC50 (second compound 1 µM) of the same compound?
Answer: < 31.6 nM

Question: And the IC50 (second compound 3.16 µM)?
Answer: < 31.6 nM

Question: What about the viability, T/C [5] of the same compound?
Answer: 26.6%

Question: What about the viability, T/C [26] of the same compound?
Answer: 26.4%

Question: What about the viability, T/C (second compound 0.0316 µM, first compound 0.316 µM) of the same compound?
Answer: 26.4%

Question: And the viability, T/C (second compound 0.0316 µM, first compound 1 µM)?
Answer: 24%

Question: What about the viability, T/C (second compound 0.0316 µM, first compound 3.16 µM) of the same compound?
Answer: 6%

Question: What about the viability, T/C (second compound 0.0316 µM, first compound 10 µM) of the same compound?
Answer: 4.38%

Question: And the viability, T/C [10]?
Answer: 26.5%

Question: And the viability, T/C [27]?
Answer: 23.7%

Question: And the viability, T/C (second compound 0.1 µM, first compound 0.316 µM)?
Answer: 24.9%

Question: What about the viability, T/C (second compound 0.1 µM, first compound 1 µM) of the same compound?
Answer: 25.1%

Question: And the viability, T/C (second compound 0.1 µM, first compound 3.16 µM)?
Answer: 5.88%

Question: What about the viability, T/C (second compound 0.1 µM, first compound 10 µM) of the same compound?
Answer: 2.8%

Question: And the viability, T/C [15]?
Answer: 25.2%

Question: What about the viability, T/C [28] of the same compound?
Answer: 25.5%

Question: And the viability, T/C (second compound 0.316 µM, first compound 0.316 µM)?
Answer: 25%

Question: And the viability, T/C (second compound 0.316 µM, first compound 1 µM)?
Answer: 25.8%

Question: And the viability, T/C (second compound 0.316 µM, first compound 3.16 µM)?
Answer: 5.25%

Question: What about the viability, T/C (second compound 0.316 µM, first compound 10 µM) of the same compound?
Answer: 3.74%

Question: And the viability, T/C [20]?
Answer: 22.6%

Question: And the viability, T/C [29]?
Answer: 21.4%

Question: What about the viability, T/C (second compound 1 µM, first compound 0.316 µM) of the same compound?
Answer: 21.4%

Question: And the viability, T/C (second compound 1 µM, first compound 1 µM)?
Answer: 21.4%

Question: What about the viability, T/C (second compound 1 µM, first compound 3.16 µM) of the same compound?
Answer: 5.13%

Question: What about the viability, T/C (second compound 1 µM, first compound 10 µM) of the same compound?
Answer: 1.61%

Question: What about the viability, T/C [25] of the same compound?
Answer: 0.12%

Question: And the viability, T/C [30]?
Answer: 0.13%

Question: And the viability, T/C (second compound 3.16 µM, first compound 0.316 µM)?
Answer: 0.1%

Question: What about the viability, T/C (second compound 3.16 µM, first compound 1 µM) of the same compound?
Answer: 0.09%

Question: What about the viability, T/C (second compound 3.16 µM, first compound 3.16 µM) of the same compound?
Answer: 0.08%

Question: What about the viability, T/C (second compound 3.16 µM, first compound 10 µM) of the same compound?
Answer: 0.12%
